“And” between values parts separate entries of the source, which are not always exact repeats. Identical values can stand only once.
What was measured:
Type in all cases: cell-based
Design in all cases: GPCRome screening signal at PTGIR / GPCRome screening signal at PTH1R / GPCRome screening signal at PTH2R / GPCRome screening signal at QRFP / GPCRome screening signal at RXFP2 / GPCRome screening signal at RXFP3 / GPCRome screening signal at RXFP4 / GPCRome screening signal at S1PR2 / GPCRome screening signal at S1PR3 / GPCRome screening signal at S1PR4 / GPCRome screening signal at S1PR5 / GPCRome screening signal at SCTR / GPCRome screening signal at SSTR2 / GPCRome screening signal at SSSTR / GPCRome screening signal at SSTR4 / GPCRome screening signal at SSTR5 / GPCRome screening signal at SUCNR1 / GPCRome screening signal at TA1 / GPCRome screening signal at TAAR2 / GPCRome screening signal at TAAR5 / GPCRome screening signal at TAAR6 / GPCRome screening signal at TAAR8 / GPCRome screening signal at TACR1 / GPCRome screening signal at TACR2 / GPCRome screening signal at TACR3 / GPCRome screening signal at TBXA2R / GPCRome screening signal at TSHR / GPCRome screening signal at UTS2R / GPCRome screening signal at VIPR2 / GPCRome screening signal at GPR68 no V2 Tail / GPCRome screening signal at GRM2 / GPCRome screening signal at GRM3: reference not given here
320 non-olfactory GPCRs [1] = biological target: T1, 320 non-olfactory GPCRs (Homo sapiens, UniProt O14804); settings: receptor TAAR5
T1 construct: expressed in transfected cells; host or cells: HTLA cells

320 non-olfactory GPCRs [2] = biological target: 320 non-olfactory GPCRs (Homo sapiens, UniProt P31391); settings: receptor SSTR4
320 non-olfactory GPCRs [3] = biological target: 320 non-olfactory GPCRs (Homo sapiens, UniProt P35346); settings: receptor SSTR5
320 non-olfactory GPCRs [4] = biological target: 320 non-olfactory GPCRs (Homo sapiens, UniProt P47872); settings: receptor SCTR
[5] = Fig_5f, single replicate values
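Wherever GPCRome agonism screen response is given: fold over basal response of each receptor without drug.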

Sequence of 320 non-olfactory GPCRs (Homo sapiens, UniProt P31391) (P31391 whole entry): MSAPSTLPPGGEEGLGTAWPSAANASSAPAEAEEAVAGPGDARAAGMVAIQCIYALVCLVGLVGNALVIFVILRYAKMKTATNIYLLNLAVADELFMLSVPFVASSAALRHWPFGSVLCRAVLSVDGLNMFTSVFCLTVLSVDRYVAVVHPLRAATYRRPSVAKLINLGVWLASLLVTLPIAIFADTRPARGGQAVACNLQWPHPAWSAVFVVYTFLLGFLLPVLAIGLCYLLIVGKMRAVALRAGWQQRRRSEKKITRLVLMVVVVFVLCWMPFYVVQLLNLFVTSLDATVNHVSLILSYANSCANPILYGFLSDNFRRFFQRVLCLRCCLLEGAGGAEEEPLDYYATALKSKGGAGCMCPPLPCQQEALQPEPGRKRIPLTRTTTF
Sequence of 320 non-olfactory GPCRs (Homo sapiens, UniProt P47872) (P47872 23-440): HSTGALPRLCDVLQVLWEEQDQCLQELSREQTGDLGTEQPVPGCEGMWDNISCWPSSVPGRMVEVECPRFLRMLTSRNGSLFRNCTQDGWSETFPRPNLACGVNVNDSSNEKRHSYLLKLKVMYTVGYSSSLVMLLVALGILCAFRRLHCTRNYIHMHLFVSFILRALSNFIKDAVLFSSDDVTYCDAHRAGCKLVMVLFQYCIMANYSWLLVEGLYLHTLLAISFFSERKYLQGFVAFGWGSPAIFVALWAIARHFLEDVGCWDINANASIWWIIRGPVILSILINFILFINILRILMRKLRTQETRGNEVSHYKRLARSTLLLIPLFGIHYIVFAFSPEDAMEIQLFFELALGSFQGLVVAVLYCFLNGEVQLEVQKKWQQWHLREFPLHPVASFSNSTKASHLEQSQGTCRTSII
Sequence of 320 non-olfactory GPCRs (Homo sapiens, UniProt P35346) (P35346 whole entry): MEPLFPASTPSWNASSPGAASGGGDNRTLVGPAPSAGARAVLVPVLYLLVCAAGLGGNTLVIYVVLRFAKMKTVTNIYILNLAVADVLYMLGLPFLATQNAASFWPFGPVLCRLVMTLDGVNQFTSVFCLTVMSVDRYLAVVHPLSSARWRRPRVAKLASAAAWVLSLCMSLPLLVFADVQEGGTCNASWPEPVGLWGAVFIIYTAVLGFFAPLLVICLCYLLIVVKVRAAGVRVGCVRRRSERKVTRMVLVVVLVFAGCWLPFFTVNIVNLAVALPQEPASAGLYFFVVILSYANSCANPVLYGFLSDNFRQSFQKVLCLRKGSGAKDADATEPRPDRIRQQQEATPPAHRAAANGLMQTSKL
T1 sequence (O14804 whole entry): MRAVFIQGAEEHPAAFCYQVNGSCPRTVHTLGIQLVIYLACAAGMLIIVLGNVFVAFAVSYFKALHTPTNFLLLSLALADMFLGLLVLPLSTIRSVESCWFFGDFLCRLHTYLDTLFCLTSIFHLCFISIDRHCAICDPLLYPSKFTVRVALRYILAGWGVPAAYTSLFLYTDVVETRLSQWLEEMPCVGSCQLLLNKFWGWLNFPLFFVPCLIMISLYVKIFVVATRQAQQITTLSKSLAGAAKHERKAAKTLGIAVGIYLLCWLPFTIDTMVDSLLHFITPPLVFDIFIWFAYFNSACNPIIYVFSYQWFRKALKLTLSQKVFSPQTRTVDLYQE

CCOc1ccccc1CCC(C)NCC1(O)CCCCC1.Cl (racemic) [Fig_5f]
GPCRome screening signal at TAAR5 (320 non-olfactory GPCRs [1]; [5]): 1.144 and 1.4451 and 1.369 and 1.654
GPCRome screening signal at SSTR4 (320 non-olfactory GPCRs [2]; [5]): 1.303 and 1.0005 and 1.096 and 1.043
GPCRome screening signal at SSTR5 (320 non-olfactory GPCRs [3]; [5]): 1.884 and 1.207 and 1.033 and 0.572
GPCRome screening signal at SCTR (320 non-olfactory GPCRs [4]; [5]): 1.0412 and 0.8528 and 0.88 and 1.015

CCOc1cccc2cc(C(C)NCC3(O)CCCCC3)oc12 (centres unmarked) [O4LE6]
GPCRome agonism screen response (320 non-olfactory GPCRs [1]; replicate values, Fig_4g): 1.083 and 1.815 and 1.566 and 2.161
GPCRome agonism screen response (320 non-olfactory GPCRs [2]; replicate values, Fig_4g): 1.584 and 2.327 and 0.4288 and 0.2624
GPCRome agonism screen response (320 non-olfactory GPCRs [3]; replicate values, Fig_4g): 1.067 and 0.3371 and 0.8014 and 0.9752
GPCRome agonism screen response (320 non-olfactory GPCRs [4]; replicate values, Fig_4g): 0.9841 and 0.1649 and 1.315 and 1.208

Reference: publication PMC7044277 (Nature Communications, 2020)
